SMILES | melting point [°C]
C=CCN1C(=O)c2ccc(C(=O)O)cc2C1=O | 154 to 156
COc1ccc(C)cc1NC(=O)CCl | 73 to 75
NC(=O)C1(c2cccc(Cl)c2)CC1 | 99 to 101
COC(=O)C(CC(C)C)NC(N)=O (stereo unspecified) | 68 to 70
COC(=O)c1ncon1 | 34 to 36
O=S(=O)(Cl)c1ccc(OCC2CCCCC2)cc1 | 82 to 84
O=C(CCCl)Nc1ccccn1 | 104 to 106
CC(=O)c1c[nH]c2cc(F)ccc12 | 222 to 224
Nn1c(S)nnc1COc1ccccc1 | 163 to 167
O=C(O)C1CC1c1ccc(F)c(F)c1 (stereo unspecified) | 89 to 91
O=C1COc2ccc(C(=O)O)cc2N1 | 228 to 230
CN(c1ccccc1)S(=O)(=O)c1cc(C(=O)O)ccc1Br | 204 to 206
O=C(O)CC1CCS(=O)(=O)C1 (stereo unspecified) | 87 to 89
CC(C)(C)c1ccc(C2(N)CCCC2)cc1 | 120 to 122
NC(=O)CCS(=O)(=O)CCCl | 139 to 141
Cn1ncc(Br)c(Br)c1=O | 114 to 116
NC(=O)Nc1ccccc1-c1ccccc1 | 155 to 157
CSc1ccc(CN2CCNCC2)cc1 | 53 to 55
CC(=O)N1CCN(C(=O)CCl)CC1 | 89 to 91
COC(=O)c1cc(N)c(Br)cc1F | 87 to 89
N#Cc1ccc(S(=O)(=O)N2CCC(C(=O)O)CC2)cc1 | 175 to 177
NCCNc1ccc(-c2ccccc2)nn1 | 113 to 115
CCN(CC)c1ccc(-c2nnc(S)n2-c2ccccc2C)cc1 | 232 to 234
CCCc1cc(C(=O)O)[nH]n1 | 169 to 171
CC1C(O)CC2CC1C2(C)C (stereo unspecified) | 51 to 53
CC(C)(C)OC(=O)N1CCN(c2ncccc2C#N)CC1 | 65 to 67

SMILES | melting point [°C]
CN(C)N=Cc1cnn(C)c1 | 70 to 72
O=C(c1ccc(O)cc1)N1CCc2sccc2C1 | 200 to 202
COCCOc1ccc(/C(C)=N\O)cc1OC | 124 to 126
Cn1c(SCC(=O)O)nc2ccccc21 | 155 to 159
CCOC(=O)c1c(C)[nH]c(C(C)=O)c1C | 115 to 117
COc1ccc(Sc2ccc(N)cc2)cc1 | 93 to 95
Cn1cc(CCC(=O)O)cn1 | 137 to 139
Cc1cc(NC(N)=O)ccc1Br | 185 to 187
Cc1cc(S(=O)(=O)Cl)ccc1OCC(=O)O | 127 to 129
O=C(O)Cc1cccc(OCC(F)(F)F)c1 | 99 to 101
CS(=O)(=O)N1CCNC(=O)C1 | 164 to 166
O=C(O)c1cc(-c2cccc(Cl)c2)no1 | 182 to 184
CC(C)(C)OC(=O)NCc1ccc(C(=O)O)o1 | 131 to 133
Cc1ccc(Cn2nc(C)c(/C=C/C(=O)O)c2C)cc1 | 161 to 163
O=C(O)c1ccsc1C(=O)O | 268 to 270
O=C(Cc1ccccc1Cl)c1ccccc1 | 68 to 70
CC(C)(C)OC(=O)NCC(N)C1CCCCC1 (stereo unspecified) | 47 to 49
CCCn1c(=O)[nH]c(=O)c2[nH]cnc21 | 288 to 290
O=C(O)c1ccccc1C(=O)c1cccs1 | 141 to 143
O=C(Nc1cccc(F)c1)C1CSCN1 (stereo unspecified) | 222 to 224
COC(=O)c1ccoc1CSc1ccccc1C(=O)O | 157 to 159
CC(Cl)C(=O)Nc1cccc(CSc2ccccn2)c1 (stereo unspecified) | 97 to 99
Nc1c(Cl)ncnc1-n1cccn1 | 110 to 112
CC(C)C(NC1=NS(=O)(=O)c2ccccc21)C(=O)O (stereo unspecified) | 234 to 236
O=Cc1ccc(Cl)nc1 | 75 to 77

Reference: a melting point compilation (Tetko et al.)
